Where two headings read alike, the source gives them in different places. One block for each substance: values may come before it. Positions of bridges follow the written chain, without caps; N, C: chain ends. No end group written: not given here.
Assays:
[1] = system: insulin-stimulated glycogen synthesis in soleus muscle; assay: Soleus muscle assay (inhibition of insulin-stimulated glycogen synthesis); assay type: cell-based, rat; details: 7.1 nM insulin
Procedure: Assays of biological activity of amylin agonists in the soleus muscle may be performed using previously described methods (Leighton, B. and Cooper, Nature, 335:632-635 (1988); Cooper, et al., Proc. Natl. Acad. Sci. USA 85:7763-7766 (1988)), in which amylin agonist activity may be assessed by measuring the inhibition of insulin-stimulated glycogen synthesis. The soleus muscle assay is also described below.
Determination of amylin agonist activity of compounds was carried out using the soleus muscle assay as follows. Male Harlan Sprague-Dawley rats of approximately 200 g mass were used in order to maintain mass of the split soleus muscle less than 40 mg. The animals were fasted for 4 hours prior to sacrifice by decapitation. The skin was stripped from the lower limb which was then pinned out on corkboard. The tendo achilles was cut just above os calcis and m. gastrocnemius reflected out from the posterior aspect of the tibia. M. soleus, a small 15-20 mm long, 0.5 mm thick flat muscle on the bone surface of m. gastrocnemius was then stripped clear and the perimysium cleaned off using fine scissors and forceps. […]
^14 C-glycogen determination was performed in a 7 mL scintillation vial. […] The remaining glycogen was redissolved in 1 mL water and 4 mL scintillation fluid and counted for ^14 C. […]

[2] = 28 days, cited from earlier work
[3] = intravenous infusion; cited from earlier work
[4] = 30-microgram doses four times per day, 14 days; p=0.003; cited from earlier work
[5] = self injected three times per day, 14 days, plus usual insulin; cited from earlier work
[6] = cited from earlier work
[7] = system: Harlan Sprague Dawley (non-diabetic) rats; assay: Phenol red gastric emptying assay, normal rats; assay type: in vivo, rat; details: sc bolus 5 minutes before gavage, ±0.19 log units
Source text: (§1) Methods of measuring the rate of gastric emptying are disclosed in, for example, Young et al., Diabetolocia, 38(6):642-648 (1995). In a phenol red method, which is described below, conscious rats receive by gavage an acoloric gel containing methyl cellulose and a phenol red indicator. Twenty minutes after gavage, animals are anesthetized using halothane, the stomach exposed and clamped at the pyloric and lower esophageal sphincters, removed and opened into an alkaline solution. Stomach content may be derived from the intensity of the phenol red in the alkaline solution, measured by absorbance at a wavelength of 560 nm. […] Tritium in the plasma separated from tail blood is collected at various timepoints and detected in a beta counter. […]
(§2) Gastric emptying was measured using a modification (Plourde et al., Life Sci. 53:857-862 (1993)) of the original method of Scarpignato et al. (Arch. Int. Pharmacodyn. Ther. 246:286-295 (1980)). […] Stomach content was derived from the intensity of the phenol red in the alkaline solution, measured by absorbance at a wavelength of 560 nm. […] In other experiments, particulate gastric contents were centrifuged to clear the solution for absorbance measurements. Where the diluted gastric contents remained turbid, the spectroscopic absorbance due to phenol red was derived as the difference between that present in alkaline vs acetified diluent. […]

[8] = system: Harlan Sprague Dawley rats; assay: Tritiated glucose gastric emptying assay; assay type: in vivo, rat; details: sc 1 minute before gavage of tritiated glucose
Source text: Methods of measuring the rate of gastric emptying are disclosed in, for example, Young et al., Diabetolocia, 38(6):642-648 (1995). In a phenol red method, which is described below, conscious rats receive by gavage an acoloric gel containing methyl cellulose and a phenol red indicator. Twenty minutes after gavage, animals are anesthetized using halothane, the stomach exposed and clamped at the pyloric and lower esophageal sphincters, removed and opened into an alkaline solution. Stomach content may be derived from the intensity of the phenol red in the alkaline solution, measured by absorbance at a wavelength of 560 nm. In a tritiated glucose method, which is described in Example 9 below, conscious rats are gavaged with tritiated glucose in water. The rats are gently restrained by the tail, the tip of which is anesthetized using lidocaine. Tritium in the plasma separated from tail blood is collected at various timepoints and detected in a beta counter. Test compounds are normally administered about one minute before gavage.
Conscious, non-fasted, Harlan Sprague Dawley rats were restrained by the tail, the tip of which was anesthetized using 2% lidocaine. Tritium in plasma separated from tail blood collected 0, 15, 30, 60, 90 and 120 minutes after gavage was detected in a beta counter. […]

[9] = system: diabetic BB rats; assay: Phenol red gastric emptying assay, diabetic rats; assay type: in vivo, rat; details: sc bolus 5 minutes before gavage, ±0.18 log units
Source text: as §1, §2

[10] = in vivo, sc; cited from earlier work

EC50 [1]: 6.62 nM
Substance: ^2,7 Cyclo-[^2 Asp,^7 Lys]-h-Amylin (KDNTATKATQRLANFLVHSSNNFGAILSSTNVGSNTY; lactam 2-7; ends not checked; UniProt P10997 34-70, looked up, variant C2D C7K) [compound 2]

EC50 [1]: 13.2 nM
Substance: ^25,28 Pro-h-Amylin [compound 6]

Substance: ^25,28,29 Pro-h-Amylin [compound 12]
Lowering of fructosamine ([2]; 30 micrograms four times a day, p=0.029): 17.5 µmol/L
Lowering of fructosamine ([2]; 60 micrograms four times a day, p=0.001): 22.6 µmol/L
Lowering of fructosamine ([2]; 60 micrograms three times a day, p=0.003): 24.1 µmol/L
Post-meal blood-glucose concentrations [3]: significantly reduced
Reduction of average blood-glucose concentrations over a 24-hour observation period compared to placebo [4]: 35 mg/dL
Blood-glucose concentrations after a test meal compared to placebo [5]: statistically significant reduction
Tolerability ([6]; 30-microgram dose): well tolerated
Lowering of fructosamine compared to placebo ([6]; 30-microgram doses four times per day, 28 days, p=0.003): 33 µmol/L
Lowering of 24-hour average blood-glucose concentrations compared to placebo ([6]; 30-microgram doses four times per day, 28 days, p=0.009): 31 mg/dL

Substance: rat amylin
ED50 for inhibition of gastric emptying [7]: 0.43 µg
ED50 derived from the logistic fit (plasma tritium AUC over 30 minutes) [8]: 0.35 µg
ED50 for inhibition of gastric emptying [9]: 2.2 µg

Substance: soluble insulin: soluble insulin given by subcutaneous injection
Duration of action (lasts for) [10]: 4 to 6 h
Time to absorption following subcutaneous injection [10]: 30 min

Source: patent US6136784A, “Amylin agonist pharmaceutical compositions containing insulin” (Amylin Pharmaceuticals, Inc., priority 1998, dated 2000)
